{"source": "patent US8344009B2", "about": "“Substituted phenoxy thiazolidinediones as estrogen related receptor-á modulators” (priority 2007, dated 2013)", "key": {"C57/BL6 male mice": {"tested_on": "C57/BL6 male mice", "test": "C57/Bl6 diet induced obesity mouse model", "type": "in vivo", "excerpt": "C57/B16 mice placed on a high fat diet are characterized by hypertriglyceridemia, impaired glucose tolerance and develop hepatic steatosis. Forty C57/BL6 male mice were received at seven weeks of age, allowed to acclimate for one week, placed on high fat diet (Test Diet 58Y1 60% of the calories from fat) for 6 weeks, and then single housed on the same diet for an additional five weeks. Body mass composition and insulin were used to randomize the animals into three groups. […] Ten additional animals were maintained on a low fat diet (4% calories from fat) and during the course of the study were given vehicle orally once a day. Blood was collected from the tail to evaluate glucose, triglyceride, FFA and insulin levels. Body weight and body composition were also recorded. Upon necropsy animals were bled through the orbital sinus under CO2:O2 anesthesia, sacrificed, and several tissues were collected and frozen in liquid nitrogen for storage at −80° C. for further use. Serum plasma samples were prepared by centrifugation in EDTA containing tubes, transferred to 96 well plates and stored at −80° C. Insulin, FFA and triglyceride levels were obtained via Day 10 tail bleed. On day fourteen an OGTT (Oral Glucose Tolerance Test) was done to determine glucose disposal rates in C57B16 mice treated with compound."}, "AKR/J mice": {"tested_on": "AKR/J mice", "test": "AKR/J mouse obesity model", "type": "in vivo", "details": "for 3-hydroxy-butyrate / % body fat / FFA (Free Fatty Acids): NEFA (Non Esterified Fatty Acids) / Glucose / Lean Mass / Triglyceride / Insulin / Total body fat: five days; for Insulin: plasma; for Total body fat: high fat diet, Q-NMR", "protocol": "AKR/J mice are a polygenic model of diet-induced obesity characterized by hypertriglyceridemia and hyperinsulinemia. AKR/J mice were received at seven weeks of age and allowed to acclimate for one week and then placed on high fat diet (45% of the calories from fat) for five weeks. Animals were treated for five days with 3 mpk (mg/kg) and 30 mpk Compound 1 (Example 1) given orally twice a day. Food intake was measured at day four. On day five, prior to necropsies, body weight was recorded and body composition was measured by Q-NMR (Quantitative Nuclear Magnetic Resonance). Animals were anesthetized with carbon dioxide and blood was collected by cardiac puncture. Plasma was obtained by centrifugation and used to determine circulating insulin levels and clinical chemistries, including liver functions tests, using commercially available kits as per manufacturers instructions. Several tissues were harvested, frozen in liquid nitrogen and stored at −80° C. for further use."}, "[1]": {"details": "10 mpk once a day, HFD, 10 days"}, "[2]": {"details": "10 mpk, after 14 days of treatment"}, "[3]": {"details": "30 mpk once a day, HFD, 10 days"}, "[4]": {"details": "30 mpk, after 14 days of treatment"}}, "note": "Marks after values point to notes of the source that are not given here."}
{"smiles": "COc1cc(/C=C2\\SC(=O)NC2=O)ccc1Oc1ccc(C#N)cc1C(F)(F)F", "note": "[Compound 1, 4-[4-(2,4-Dioxo-thiazolidin-5-ylidenemethyl)-2-methoxy-phenoxy]-3-trifluoromethyl-benzonitrile]", "values": [{"measurement": "FFA", "setting": "C57/BL6 male mice; [1]", "result": "0.38* mEq/L"}, {"measurement": "Insulin", "setting": "C57/BL6 male mice; [1]", "result": "1.4* μg/L"}, {"measurement": "Triglyceride", "setting": "C57/BL6 male mice; 10 mpk once a day, HFD, 10 days, tail bleed", "result": "58** mg/dL"}, {"measurement": "AUC 0-60 min of glucose in OGTT", "setting": "C57/BL6 male mice; [2]", "result": 15077, "unit": "mg/dL/1 hr"}, {"measurement": "AUC 0-120 min of glucose in OGTT", "setting": "C57/BL6 male mice; [2]", "result": 27984, "unit": "mg/dL/2 hr"}, {"measurement": "3-hydroxy-butyrate", "setting": "C57/BL6 male mice; 10 mpk, treated for 18 days", "result": "6.0 ×10−5"}, {"measurement": "FFA (NEFA)", "setting": "C57/BL6 male mice; 10 mpk, treated for 18 days", "result": 0.49, "unit": "mEq"}, {"measurement": "Glucose", "setting": "C57/BL6 male mice; 10 mpk, treated for 18 days", "result": 176, "unit": "mg/dL"}, {"measurement": "LDL", "setting": "C57/BL6 male mice; 10 mpk, treated for 18 days", "result": 12, "unit": "mg/dL"}, {"measurement": "Triglyceride", "setting": "C57/BL6 male mice; 10 mpk, treated for 18 days", "result": 123, "unit": "mg/dL"}, {"measurement": "FFA", "setting": "C57/BL6 male mice; [3]", "result": "0.40* mEq/L"}, {"measurement": "Insulin", "setting": "C57/BL6 male mice; [3]", "result": "1.3* μg/L"}, {"measurement": "Triglyceride", "setting": "C57/BL6 male mice; 30 mpk once a day, HFD, 10 days, tail bleed", "result": "59* mg/dL"}, {"measurement": "AUC 0-60 min of glucose in OGTT", "setting": "C57/BL6 male mice; [4]", "result": "14425* mg/dL/1 hr"}, {"measurement": "AUC 0-120 min of glucose in OGTT", "setting": "C57/BL6 male mice; [4]", "result": 28540, "unit": "mg/dL/2 hr"}, {"measurement": "3-hydroxy-butyrate", "setting": "C57/BL6 male mice; 30 mpk, treated for 18 days", "result": "9.1* ×10−5"}, {"measurement": "FFA (NEFA)", "setting": "C57/BL6 male mice; 30 mpk, treated for 18 days", "result": "0.38* mEq"}, {"measurement": "Glucose", "setting": "C57/BL6 male mice; 30 mpk, treated for 18 days", "result": 174, "unit": "mg/dL"}, {"measurement": "LDL", "setting": "C57/BL6 male mice; 30 mpk, treated for 18 days", "result": "7* mg/dL"}, {"measurement": "Triglyceride", "setting": "C57/BL6 male mice; 30 mpk, treated for 18 days", "result": "58*** mg/dL"}, {"measurement": "plasma glucose following an oral glucose tolerance test", "setting": "C57/BL6 male mice; FIG. 2 and Table VI, after 14 days of treatment", "result": "reduces fasting plasma glucose following an oral glucose tolerance test"}, {"measurement": "3-hydroxy-butyrate", "setting": "AKR/J mice; 3 mpk orally twice a day", "result": "8.3 ± 0.9 ×10−5"}, {"measurement": "% body fat", "setting": "AKR/J mice; 3 mpk orally twice a day", "result": "12.7 ± 0.8", "unit": "%"}, {"measurement": "FFA (Free Fatty Acids): NEFA (Non Esterified Fatty Acids)", "setting": "AKR/J mice; 3 mpk orally twice a day", "result": "0.59 ± 0.07", "unit": "mM"}, {"measurement": "Glucose", "setting": "AKR/J mice; 3 mpk orally twice a day", "result": "165.0 ± 5.0", "unit": "mg/dL"}, {"measurement": "Lean Mass", "setting": "AKR/J mice; 3 mpk orally twice a day", "result": "20.2 ± 0.3", "unit": "g"}, {"measurement": "Triglyceride", "setting": "AKR/J mice; 3 mpk orally twice a day", "result": "160.0 ± 18.9", "unit": "mg/dL"}, {"measurement": "Insulin", "setting": "AKR/J mice; 3 mpk orally twice a day", "result": "9.6 ± 1.5", "unit": "ng/mL"}, {"measurement": "3-hydroxy-butyrate", "setting": "AKR/J mice; 30 mpk orally twice a day", "result": "12.6 ± 1.8 ×10−5"}, {"measurement": "% body fat", "setting": "AKR/J mice; 30 mpk orally twice a day", "result": "9.3 ± 0.6", "unit": "%"}, {"measurement": "FFA (Free Fatty Acids): NEFA (Non Esterified Fatty Acids)", "setting": "AKR/J mice; 30 mpk orally twice a day", "result": "0.41 ± 0.05", "unit": "mM"}, {"measurement": "Glucose", "setting": "AKR/J mice; 30 mpk orally twice a day", "result": "185.0 ± 10.01", "unit": "mg/dL"}, {"measurement": "Lean Mass", "setting": "AKR/J mice; 30 mpk orally twice a day", "result": "20.0 ± 0.2", "unit": "g"}, {"measurement": "Triglyceride", "setting": "AKR/J mice; 30 mpk orally twice a day", "result": "80.0 ± 9.8", "unit": "mg/dL"}, {"measurement": "Insulin", "setting": "AKR/J mice; 30 mpk orally twice a day", "result": "2.8 ± 0.8", "unit": "ng/mL"}, {"measurement": "Total body fat", "setting": "AKR/J mice; AKR/J mice, 3 mpk orally twice a day", "result": "3.87 ± 0.29", "unit": "g"}, {"measurement": "Total body fat", "setting": "AKR/J mice; AKR/J mice, 30 mpk orally twice a day", "result": "2.7 ± 0.2", "unit": "g"}, {"measurement": "body weight", "setting": "AKR/J mice; FIG. 1, AKR/J mice, 3 and 30 mpk twice a day, day five", "result": "reduces body weight"}, {"measurement": "food intake", "setting": "AKR/J mice; FIG. 1, AKR/J mice, 3 and 30 mpk twice a day, day four", "result": "reduces food intake"}]}
